Entries after “also recorded” stand apart in the source; their conditions may differ.
Columns and labels:
HIF-2α = assay: Immunoblot of HIF-2α protein in VHL knockdown RCC cells; assay type: cell-based, human; settings: 1 and 10 nM CCI-779, 24 hours
Procedure: (a) SN12C-CSCG and SN12C-VHLshRNA cell were treated with vehicle, 1 nM or 10 nM of CCI-779 and lysed 24 hours later. Lysates were subjected to immunoblotting for HIF-1α, HIF-2α, GLUT-1, CA-IX, p-eIF4G, p-S6 Ribosomal protein. Equal protein loading was verified using anti-β-actin antibody. (b) HIF-1α expression was probed by immunoblotting in SN12C-MSCV-5′TOP-HIF-1α cDNA (left panel) and SN12C-MSCV-HIF-1α cDNA (tight panel) post 24 hours of vehicle, 1 nM or 10 nM of CCI-779.
Cells and xenograft tumors were lysed in ECB lysis buffer (see, e.g. Kondo et al., Cancer Cell 1, 237-46 (2002)) or high-detergent buffer (2% SDS), (see, e.g. Chen et al., Nat Med 10, 33-9 (2004)), respectively, supplemented with complete protease and phosphatase inhibitor cocktails (Calbiochem). […] Bound antibody was detected using enhanced chemiluminescence (ECL, Amersham). For VEGF ELISA quantification, cells were plated in 6 well plates (1×10^5 per well). […] Thirty-six hours later, VEGF ELISA (R&D Systems) was performed according to the manufacturer's instructions, using a Fisher Plate reader. […]
Cells and xenograft tumors were lysed in ECB lysis buffer or high-detergent buffer (2% SDS), respectively, supplemented with complete protease and phosphatase inhibitor cocktails (Calbiochem). […] Bound antibody was detected using enhanced chemiluminescence (ECL, Amersham). […]

VEGF = VEGF immunohistochemistry on xenograft tumors; assay type: in vivo, SCID mice; settings: CCI-779 treated vs vehicle
Procedure: FIGS. 2A-2C. Effects of VHL knockdown on angiogenesis. (a) Microvessel density was quantified by CD-31 immunolabeling (arrows) in the xenograft tumors, and difference between CCI-779 treated (+) and vehicle (−) treated mice quantified (n=6 in each group). P<0.0033 for microvessel density counts in VHL shRNA compared to vector only (see blue bars). (b) Similar number of cells were plated and maintained in 10% serum rich media, in the presence (+) or absence (−) of 10 nM CCI-779. Thirty-six hours later, conditioned media was analyzed by anti-VEGF ELISA and cell extracts prepared for protein quantification. VEGF values were normalized to total cellular protein. Error bars equal one standard deviation (n=3). (c) Immunohistochemistry for VEGF protein was performed on paraffin embedded tumor xenografts from vehicle and CCI-779 treated mice.
Xenograft tumor samples were fixed in 10% buffered formalin and embedded in paraffin. […] Microvessel density was quantified by as described previously (Weidner, N. et al. J Natl Cancer Inst 84, 1875-87 (1992)). Briefly, microvessel density was determined by light microscopy in areas of the xenograft tumor containing highest numbers of capillaries and small venules (microvessels) per area (i.e. neovascular “hotspots”) by scanning the tumor sections at low power (40× and 100×). […]

CO[C@H]1C[C@@H]2CC[C@@H](C)[C@@](O)(O2)C(=O)C(=O)N2CCCC[C@H]2C(=O)O[C@H]([C@H](C)C[C@@H]2CC[C@@H](OC(=O)C(C)(CO)CO)[C@H](OC)C2)CC(=O)[C@H](C)/C=C(\C)[C@@H](O)[C@@H](OC)C(=O)[C@H](C)C[C@H](C)/C=C/C=C/C=C/1C [CCI-779] was tested, and the HIF-2α protein levels (HIF-2α) was “dramatically reduced; also recorded: reduction; also recorded: decrease” and the “VEGF protein expression in VHL knockdown xenografts” value (VEGF) was “reversed; also recorded: reduced”.
